Tests used:
ragweed [1] = assay: Test C postemergence; format: in vivo, Ambrosia artemisiifolia; details: 0 to 100 scale (0 no effect, 100 complete control), 10 days
Summary of the method: (§1)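 Seeds in loam–sand blend received preemergence directed soil spray of test chemicals in non-phytotoxic solvent with surfactant; postemergence treatment was applied at one- to two-leaf stage (2–10 cm). After 10 days in greenhouse, injury rated visually versus untreated controls, 0 (no effect) to 100 (complete control).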

soybean [2] = assay: Test C preemergence; format: in vivo, Glycine max; details: for Soybean plant response rating: preemergence, 0 to 100 scale (0 no effect, 100 complete control)
Summary of the method: as §1

oat, wild [3] = assay: Test C preemergence; format: in vivo, Avena fatua; details: for Oat, Wild plant response rating: preemergence, 0 to 100 scale (0 no effect, 100 complete control)
Summary of the method: as §1

pigweed, palmer [4] = assay: Test C preemergence; format: in vivo, Amaranthus palmeri; details: for Pigweed, Palmer plant response rating: preemergence, 0 to 100 scale (0 no effect, 100 complete control)
Summary of the method: as §1

rice = assay: Test D flooded paddy test; format: in vivo, Oryza sativa; details: 250 g ai/ha, applied to paddy water, visual rating after 13 to 14 days, scale 0 to 100 (0 no effect, 100 complete control)
Summary of the method: (§2)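 Compounds go straight into paddy water over 2-leaf plants in pots flooded to 3 cm. Greenhouse holding lasts 13 to 14 days. Injury is scored by eye against controls from 0 (none) to 100 (complete control).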

green foxtail [5] = assay: Test C preemergence; format: in vivo, Setaria viridis; details: for Foxtail, Green plant response rating: preemergence, 0 to 100 scale (0 no effect, 100 complete control)
Summary of the method: as §1

kochia [6] = assay: Test C preemergence; format: in vivo, Bassia scoparia; details: for Kochia plant response rating: preemergence, 0 to 100 scale (0 no effect, 100 complete control)
Summary of the method: as §1

ryegrass, Italian [7] = assay: Test C postemergence; format: in vivo, Lolium multiflorum; details: 0 to 100 scale (0 no effect, 100 complete control), 10 days
Summary of the method: as §1

wheat [8] = assay: Test C postemergence; format: in vivo, Triticum aestivum; details: 0 to 100 scale (0 no effect, 100 complete control), 10 days
Summary of the method: as §1

wheat [9] = assay: Test C preemergence; format: in vivo, Triticum aestivum; details: for Wheat plant response rating: preemergence, 0 to 100 scale (0 no effect, 100 complete control)
Summary of the method: as §1

barnyardgrass [10] = assay: Test C preemergence; format: in vivo, Echinochloa crusgalli; details: for Barnyardgrass plant response rating: preemergence, 0 to 100 scale (0 no effect, 100 complete control)
Summary of the method: as §1

barnyardgrass [11] = assay: Test D flooded paddy test; format: in vivo, Echinochloa crus-galli; details: 250 g ai/ha, applied to paddy water, visual rating after 13 to 14 days, scale 0 to 100 (0 no effect, 100 complete control)
Summary of the method: as §2

horseweed = assay: Test C postemergence; format: in vivo, Erigeron canadensis; details: 10 days, 0 to 100 scale (0 no effect, 100 complete control)
Summary of the method: as §1

ryegrass, Italian [12] = assay: Test C preemergence; format: in vivo, Lolium multiflorum; details: for Ryegrass, Italian plant response rating: preemergence, 0 to 100 scale (0 no effect, 100 complete control)
Summary of the method: as §1

pigweed, palmer [13] = assay: Test C postemergence; format: in vivo, Amaranthus palmeri; details: 10 days, 0 to 100 scale (0 no effect, 100 complete control)
Summary of the method: as §1

corn [14] = assay: Test C preemergence; format: in vivo, Zea mays; details: for Corn plant response rating: preemergence, 0 to 100 scale (0 no effect, 100 complete control)
Summary of the method: as §1

barnyardgrass [15] = assay: Test C postemergence; format: in vivo, Echinochloa crusgalli; details: 10 days, 0 to 100 scale (0 no effect, 100 complete control)
Summary of the method: as §1

blackgrass [16] = assay: Test C preemergence; format: in vivo, Alopecurus myosuroides; details: for Blackgrass plant response rating: preemergence, 0 to 100 scale (0 no effect, 100 complete control)
Summary of the method: as §1

sedge, umbrella = assay: Test D flooded paddy test; format: in vivo, Cyperus difformis; details: 250 g ai/ha, applied to paddy water, visual rating after 13 to 14 days, scale 0 to 100 (0 no effect, 100 complete control)
Summary of the method: as §2

ducksalad = assay: Test D flooded paddy test; format: in vivo, Heteranthera limosa; details: 250 g ai/ha, applied to paddy water, visual rating after 13 to 14 days, scale 0 to 100 (0 no effect, 100 complete control)
Summary of the method: as §2

corn [17] = assay: Test C postemergence; format: in vivo, Zea mays; details: 10 days, 0 to 100 scale (0 no effect, 100 complete control)
Summary of the method: as §1

soybean [18] = assay: Test C postemergence; format: in vivo, Glycine max; details: 0 to 100 scale (0 no effect, 100 complete control), 10 days
Summary of the method: as §1

kochia [19] = assay: Test C postemergence; format: in vivo, Bassia scoparia; details: 10 days, 0 to 100 scale (0 no effect, 100 complete control)
Summary of the method: as §1

green foxtail [20] = assay: Test C postemergence; format: in vivo, Setaria viridis; details: 10 days, 0 to 100 scale (0 no effect, 100 complete control)
Summary of the method: as §1

galium = assay: Test C postemergence; format: in vivo, Galium aparine; details: 10 days, 0 to 100 scale (0 no effect, 100 complete control)
Summary of the method: as §1

ragweed [21] = assay: Test C preemergence; format: in vivo, Ambrosia artemisiifolia; details: for Ragweed plant response rating: preemergence, 0 to 100 scale (0 no effect, 100 complete control)
Summary of the method: as §1

oat, wild [22] = assay: Test C postemergence; format: in vivo, Avena fatua; details: 10 days, 0 to 100 scale (0 no effect, 100 complete control)
Summary of the method: as §1

blackgrass [23] = assay: Test C postemergence; format: in vivo, Alopecurus myosuroides; details: 10 days, 0 to 100 scale (0 no effect, 100 complete control)
Summary of the method: as §1

[24] = Preemergence, 125 g ai/ha, 0 to 100 scale, 0 no effect, 100 complete control

## CCOC[C@H]1CN(C(=O)c2cc(-n3cnc(CC)n3)ccc2C)c2cccc(Cl)c2O1 [Compound 412]
Ragweed [1]; Postemergence, 125 g ai/ha
  Plant response rating, Ragweed: 90
Soybean [2]; 500 g ai/ha
  Soybean plant response rating: 90
Soybean [2]; [24]
  Plant response rating, Soybean: 60
oat, wild [3]; 500 g ai/ha
  Oat, Wild plant response rating: 0
oat, wild [3]; [24]
  Plant response rating, Oat, Wild: 0
pigweed, palmer [4]; 500 g ai/ha
  Pigweed, Palmer plant response rating: 100
pigweed, palmer [4]; [24]
  Plant response rating, Pigweed, Palmer: 100
rice
  Plant response rating, Rice (Flood): 10
Green foxtail [5]; 500 g ai/ha
  Foxtail, Green plant response rating: 100
Green foxtail [5]; [24]
  Plant response rating, Foxtail, Green: 100
Kochia [6]; 500 g ai/ha
  Kochia plant response rating: 80
Kochia [6]; [24]
  Plant response rating, Kochia: 30
ryegrass, Italian [7]; Postemergence, 125 g ai/ha
  Plant response rating, Ryegrass, Italian: 70
Wheat [8]; Postemergence, 125 g ai/ha
  Plant response rating, Wheat: 20
Wheat [9]; 500 g ai/ha
  Wheat plant response rating: 30
Wheat [9]; [24]
  Plant response rating, Wheat: 30
Barnyardgrass [10]; 500 g ai/ha
  Barnyardgrass plant response rating: 80
Barnyardgrass [10]; [24]
  Plant response rating, Barnyardgrass: 60
Barnyardgrass [11]
  Plant response rating, Barnyardgrass (Flood): 25
horseweed; 500 g ai/ha, postemergence
  Plant response rating, Horseweed: 30
horseweed; Postemergence, 125 g ai/ha
  Plant response rating, Horseweed: 20
ryegrass, Italian [12]; 500 g ai/ha
  Ryegrass, Italian plant response rating: 90
ryegrass, Italian [12]; [24]
  Plant response rating, Ryegrass, Italian: 80
pigweed, palmer [13]; 500 g ai/ha, postemergence
  Plant response rating, Pigweed, Palmer: 90
pigweed, palmer [13]; Postemergence, 125 g ai/ha
  Plant response rating, Pigweed, Palmer: 80
Corn [14]; 500 g ai/ha
  Corn plant response rating: 30
Corn [14]; [24]
  Plant response rating, Corn: 0
Barnyardgrass [15]; 500 g ai/ha, postemergence
  Plant response rating, Barnyardgrass: 80
Barnyardgrass [15]; Postemergence, 125 g ai/ha
  Plant response rating, Barnyardgrass: 40
Blackgrass [16]; 500 g ai/ha
  Blackgrass plant response rating: 90
Blackgrass [16]; [24]
  Plant response rating, Blackgrass: 50
sedge, umbrella
  Plant response rating, Sedge, Umbrella (Flood): 90
ducksalad
  Plant response rating, Ducksalad (Flood): 75
Corn [17]; 500 g ai/ha, postemergence
  Plant response rating, Corn: 20
Corn [17]; Postemergence, 125 g ai/ha
  Plant response rating, Corn: 20
Soybean [18]; Postemergence, 125 g ai/ha
  Plant response rating, Soybean: 100
Kochia [19]; 500 g ai/ha, postemergence
  Plant response rating, Kochia: 90
Kochia [19]; Postemergence, 125 g ai/ha
  Plant response rating, Kochia: 80
Green foxtail [20]; 500 g ai/ha, postemergence
  Plant response rating, Foxtail, Green: 90
Green foxtail [20]; Postemergence, 125 g ai/ha
  Plant response rating, Foxtail, Green: 80
galium; 500 g ai/ha, postemergence
  Plant response rating, Galium: 100
galium; Postemergence, 125 g ai/ha
  Plant response rating, Galium: 100
Ragweed [21]; 500 g ai/ha
  Ragweed plant response rating: 100
Ragweed [21]; [24]
  Plant response rating, Ragweed: 50
oat, wild [22]; 500 g ai/ha, postemergence
  Plant response rating, Oat, Wild: 50
oat, wild [22]; Postemergence, 125 g ai/ha
  Plant response rating, Oat, Wild: 20
Blackgrass [23]; 500 g ai/ha, postemergence
  Plant response rating, Blackgrass: 90
Blackgrass [23]; Postemergence, 125 g ai/ha
  Plant response rating, Blackgrass: 60

## COC[C@H]1CN(C(=O)c2cc(-n3cnc(C(C)C)n3)ccc2OC)c2cccc(Cl)c2O1 [Compound 314]
Ragweed [1]; 500 g ai/ha, postemergence
  Plant response rating, Ragweed: 90
Ragweed [1]; Postemergence, 125 g ai/ha
  Plant response rating, Ragweed: 80
Soybean [2]; 500 g ai/ha
  Soybean plant response rating: 90
Soybean [2]; Test C, 125 g ai/ha
  Soybean plant response rating: 40
oat, wild [3]; 500 g ai/ha
  Oat, Wild plant response rating: 80
oat, wild [3]; Test C, 125 g ai/ha
  Oat, Wild plant response rating: 60
pigweed, palmer [4]; 500 g ai/ha
  Pigweed, Palmer plant response rating: 100
pigweed, palmer [4]; Test C, 125 g ai/ha
  Pigweed, Palmer plant response rating: 100
rice
  Plant response rating, Rice (Flood): 15
Green foxtail [5]; 500 g ai/ha
  Foxtail, Green plant response rating: 100
Green foxtail [5]; Test C, 125 g ai/ha
  Foxtail, Green plant response rating: 100
Kochia [6]; 500 g ai/ha
  Kochia plant response rating: 100
Kochia [6]; Test C, 125 g ai/ha
  Kochia plant response rating: 90
ryegrass, Italian [7]; 500 g ai/ha, postemergence
  Plant response rating, Ryegrass, Italian: 90
ryegrass, Italian [7]; Postemergence, 125 g ai/ha
  Plant response rating, Ryegrass, Italian: 80
Wheat [8]; 500 g ai/ha, postemergence
  Plant response rating, Wheat: 30
Wheat [8]; Postemergence, 125 g ai/ha
  Plant response rating, Wheat: 20
Wheat [9]; 500 g ai/ha
  Wheat plant response rating: 40
Wheat [9]; Test C, 125 g ai/ha
  Wheat plant response rating: 20
Barnyardgrass [10]; 500 g ai/ha
  Barnyardgrass plant response rating: 100
Barnyardgrass [10]; Test C, 125 g ai/ha
  Barnyardgrass plant response rating: 70
Barnyardgrass [11]
  Plant response rating, Barnyardgrass (Flood): 15
horseweed; 500 g ai/ha, postemergence
  Plant response rating, Horseweed: 90
horseweed; Postemergence, 125 g ai/ha
  Plant response rating, Horseweed: 100
ryegrass, Italian [12]; 500 g ai/ha
  Ryegrass, Italian plant response rating: 100
ryegrass, Italian [12]; Test C, 125 g ai/ha
  Ryegrass, Italian plant response rating: 100
pigweed, palmer [13]; 500 g ai/ha, postemergence
  Plant response rating, Pigweed, Palmer: 90
pigweed, palmer [13]; Postemergence, 125 g ai/ha
  Plant response rating, Pigweed, Palmer: 60
Corn [14]; 500 g ai/ha
  Corn plant response rating: 0
Corn [14]; Test C, 125 g ai/ha
  Corn plant response rating: 0
Barnyardgrass [15]; 500 g ai/ha, postemergence
  Plant response rating, Barnyardgrass: 60
Barnyardgrass [15]; Postemergence, 125 g ai/ha
  Plant response rating, Barnyardgrass: 30
Blackgrass [16]; 500 g ai/ha
  Blackgrass plant response rating: 70
Blackgrass [16]; Test C, 125 g ai/ha
  Blackgrass plant response rating: 20
sedge, umbrella
  Plant response rating, Sedge, Umbrella (Flood): 100
ducksalad
  Plant response rating, Ducksalad (Flood): 85
Corn [17]; 500 g ai/ha, postemergence
  Plant response rating, Corn: 90
Corn [17]; Postemergence, 125 g ai/ha
  Plant response rating, Corn: 80
Soybean [18]; 500 g ai/ha, postemergence
  Plant response rating, Soybean: 100
Soybean [18]; Postemergence, 125 g ai/ha
  Plant response rating, Soybean: 100
Kochia [19]; 500 g ai/ha, postemergence
  Plant response rating, Kochia: 90
Kochia [19]; Postemergence, 125 g ai/ha
  Plant response rating, Kochia: 90
Green foxtail [20]; 500 g ai/ha, postemergence
  Plant response rating, Foxtail, Green: 90
Green foxtail [20]; Postemergence, 125 g ai/ha
  Plant response rating, Foxtail, Green: 60
galium; 500 g ai/ha, postemergence
  Plant response rating, Galium: 100
galium; Postemergence, 125 g ai/ha
  Plant response rating, Galium: 100
Ragweed [21]; 500 g ai/ha
  Ragweed plant response rating: 70
Ragweed [21]; Test C, 125 g ai/ha
  Ragweed plant response rating: 50
oat, wild [22]; 500 g ai/ha, postemergence
  Plant response rating, Oat, Wild: 40
oat, wild [22]; Postemergence, 125 g ai/ha
  Plant response rating, Oat, Wild: 40
Blackgrass [23]; 500 g ai/ha, postemergence
  Plant response rating, Blackgrass: 100
Blackgrass [23]; Postemergence, 125 g ai/ha
  Plant response rating, Blackgrass: 80
